Laboratory results published in patent US12054463B2, “Radiolabeled microtubule imaging compounds and uses thereof” (The Trustees of Columbia University in the City of New York, priority 2017, dated 2024).

Tests used:
α2A-2C = test: Affinity to brain targets (panel); format: binding
I = test: Affinity to brain targets (panel); format: binding
Na+ Channel = test: Affinity to brain targets (panel); format: binding
CB1, CB2 = test: Affinity to brain targets (panel); format: binding
GABA = test: Affinity to brain targets (panel); format: binding
DAT = DAT (Homo sapiens, UniProt Q01959); test: Affinity to brain targets (panel); format: binding; settings: DAT: dopamine transporters
Chain of DAT (Q01959 whole entry, species assumed): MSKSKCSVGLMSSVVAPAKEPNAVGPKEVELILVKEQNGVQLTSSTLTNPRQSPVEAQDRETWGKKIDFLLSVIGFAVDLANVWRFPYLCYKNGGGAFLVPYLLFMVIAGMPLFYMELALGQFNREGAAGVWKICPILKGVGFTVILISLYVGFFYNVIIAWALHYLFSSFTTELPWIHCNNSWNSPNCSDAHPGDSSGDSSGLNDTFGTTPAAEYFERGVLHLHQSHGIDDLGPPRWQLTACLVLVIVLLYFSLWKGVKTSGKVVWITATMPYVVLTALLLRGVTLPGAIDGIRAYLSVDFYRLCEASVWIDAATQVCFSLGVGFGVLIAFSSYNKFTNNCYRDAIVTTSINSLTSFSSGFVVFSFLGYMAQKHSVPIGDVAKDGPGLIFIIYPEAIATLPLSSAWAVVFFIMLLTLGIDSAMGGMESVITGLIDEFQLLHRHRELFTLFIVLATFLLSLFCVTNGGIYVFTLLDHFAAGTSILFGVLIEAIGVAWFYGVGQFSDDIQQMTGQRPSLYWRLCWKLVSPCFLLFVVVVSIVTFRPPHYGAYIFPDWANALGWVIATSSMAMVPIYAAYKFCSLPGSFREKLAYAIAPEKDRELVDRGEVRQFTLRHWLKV

α1A-1C = test: Affinity to brain targets (panel); format: binding
KOR = KOR (Homo sapiens, UniProt P41145); test: Affinity to brain targets (panel); format: binding; settings: KOR: kappa opioid receptors
PKC = test: Affinity to brain targets (panel); format: binding; settings: PKC: Protein kinase C
Microtubule = settings: MT; reference 12; cited from earlier work
M = test: Affinity to brain targets (panel); format: binding; settings: M: muscarinic
H3, H4 = test: Affinity to brain targets (panel); format: binding; settings: H3, H4: histamine
VMAT = test: Affinity to brain targets (panel); format: binding; settings: VMAT (VMAT 1,2): vesicular monoamine transporter
NET = NET (Homo sapiens, UniProt P23975); test: Affinity to brain targets (panel); format: binding; settings: NET: norepinephrine transporter
Chain of NET (P23975 whole entry): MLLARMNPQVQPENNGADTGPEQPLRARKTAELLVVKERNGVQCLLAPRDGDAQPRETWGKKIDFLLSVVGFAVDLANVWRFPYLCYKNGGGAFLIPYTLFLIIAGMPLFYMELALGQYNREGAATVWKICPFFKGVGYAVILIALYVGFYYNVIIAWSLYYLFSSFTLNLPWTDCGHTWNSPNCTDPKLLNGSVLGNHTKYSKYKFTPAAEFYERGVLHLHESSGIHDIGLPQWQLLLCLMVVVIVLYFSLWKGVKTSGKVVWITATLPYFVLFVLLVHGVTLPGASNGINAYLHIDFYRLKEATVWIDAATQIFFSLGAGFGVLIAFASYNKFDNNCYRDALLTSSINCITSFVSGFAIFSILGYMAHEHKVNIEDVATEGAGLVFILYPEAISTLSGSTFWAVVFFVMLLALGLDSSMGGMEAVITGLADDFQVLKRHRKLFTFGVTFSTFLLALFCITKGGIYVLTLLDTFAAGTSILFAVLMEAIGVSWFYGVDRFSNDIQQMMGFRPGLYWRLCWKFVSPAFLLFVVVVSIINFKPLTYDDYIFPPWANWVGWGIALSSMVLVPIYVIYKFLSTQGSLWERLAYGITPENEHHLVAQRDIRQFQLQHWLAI

H2 = H2 (Homo sapiens, UniProt P25021); test: Affinity to brain targets (panel); format: binding; settings: H2: histamine
SERT = SERT (Homo sapiens, UniProt P31645); test: Affinity to brain targets (panel); format: binding; settings: SERT: serotonin transporter
Chain of SERT (P31645 whole entry, species assumed): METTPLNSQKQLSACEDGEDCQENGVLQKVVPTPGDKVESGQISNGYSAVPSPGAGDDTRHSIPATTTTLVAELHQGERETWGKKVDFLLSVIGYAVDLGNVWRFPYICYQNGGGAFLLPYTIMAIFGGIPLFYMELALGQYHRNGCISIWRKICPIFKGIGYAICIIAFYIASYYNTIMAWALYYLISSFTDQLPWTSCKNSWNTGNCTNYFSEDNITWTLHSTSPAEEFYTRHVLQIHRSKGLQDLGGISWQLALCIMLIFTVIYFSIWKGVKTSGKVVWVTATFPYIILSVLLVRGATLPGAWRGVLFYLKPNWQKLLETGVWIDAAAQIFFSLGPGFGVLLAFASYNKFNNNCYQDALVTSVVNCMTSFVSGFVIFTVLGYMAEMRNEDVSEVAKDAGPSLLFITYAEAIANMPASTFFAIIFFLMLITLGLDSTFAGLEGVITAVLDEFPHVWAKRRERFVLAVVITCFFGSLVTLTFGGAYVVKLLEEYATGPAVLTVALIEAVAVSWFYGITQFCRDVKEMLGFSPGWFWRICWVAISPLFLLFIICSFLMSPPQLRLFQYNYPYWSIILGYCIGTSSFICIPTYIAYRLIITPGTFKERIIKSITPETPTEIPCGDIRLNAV

KA = test: Affinity to brain targets (panel); format: binding; settings: KA (KAR): Kainate
[1] = references 12-14; cited from earlier work
Adenosine = test: Affinity to brain targets (panel); format: binding; settings: Adenosine (A)
mGluR = test: Affinity to brain targets (panel); format: binding; settings: mGluR (mGluRs): metabotropic glutamate receptors
BZP = test: Affinity to brain targets (panel); format: binding; settings: BZP: benzodiazepine
MDR1 = MDR1 (Homo sapiens, UniProt P08183); test: Affinity to brain targets (panel); format: binding; settings: MDR1: multidrug resistance
MOR = MOR (Homo sapiens, UniProt P35372); test: Affinity to brain targets (panel); format: binding; settings: MOR: mu opioid receptor
Sigma2 = Sigma2 (Homo sapiens, UniProt Q5BJF2); test: Affinity to brain targets (panel); format: binding; settings: Sigma2 (Sigma 2)
Chain of Sigma2 (Q5BJF2 whole entry): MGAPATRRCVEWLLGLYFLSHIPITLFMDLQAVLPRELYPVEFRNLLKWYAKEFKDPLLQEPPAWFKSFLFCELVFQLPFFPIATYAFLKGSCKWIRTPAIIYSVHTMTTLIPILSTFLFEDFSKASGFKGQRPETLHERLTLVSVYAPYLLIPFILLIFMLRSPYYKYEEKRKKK

5-HT3-7 = test: Affinity to brain targets (panel); format: binding
H1 = H1 (Homo sapiens, UniProt P35367); test: Affinity to brain targets (panel); format: binding; settings: H1: histamine
Chain of H1 (P35367 whole entry): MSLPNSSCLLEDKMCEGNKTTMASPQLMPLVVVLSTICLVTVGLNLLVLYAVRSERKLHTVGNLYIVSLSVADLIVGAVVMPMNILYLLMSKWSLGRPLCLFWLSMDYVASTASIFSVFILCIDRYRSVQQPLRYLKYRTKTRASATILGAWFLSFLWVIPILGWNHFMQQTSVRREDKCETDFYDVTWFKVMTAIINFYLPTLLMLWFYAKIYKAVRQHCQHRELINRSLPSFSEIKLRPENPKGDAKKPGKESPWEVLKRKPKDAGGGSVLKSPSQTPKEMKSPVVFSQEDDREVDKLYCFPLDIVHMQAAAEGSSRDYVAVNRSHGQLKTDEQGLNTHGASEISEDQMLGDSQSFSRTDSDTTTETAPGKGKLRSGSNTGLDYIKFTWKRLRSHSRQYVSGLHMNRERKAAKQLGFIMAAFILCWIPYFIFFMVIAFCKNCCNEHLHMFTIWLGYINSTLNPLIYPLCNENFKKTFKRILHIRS

EP = test: Affinity to brain targets (panel); format: binding; settings: EP: prostanoid receptors
NMDA = test: Affinity to brain targets (panel); format: binding
NOP = NOP (Homo sapiens, UniProt P41146); test: Affinity to brain targets (panel); format: binding
Chain of NOP (P41146 whole entry): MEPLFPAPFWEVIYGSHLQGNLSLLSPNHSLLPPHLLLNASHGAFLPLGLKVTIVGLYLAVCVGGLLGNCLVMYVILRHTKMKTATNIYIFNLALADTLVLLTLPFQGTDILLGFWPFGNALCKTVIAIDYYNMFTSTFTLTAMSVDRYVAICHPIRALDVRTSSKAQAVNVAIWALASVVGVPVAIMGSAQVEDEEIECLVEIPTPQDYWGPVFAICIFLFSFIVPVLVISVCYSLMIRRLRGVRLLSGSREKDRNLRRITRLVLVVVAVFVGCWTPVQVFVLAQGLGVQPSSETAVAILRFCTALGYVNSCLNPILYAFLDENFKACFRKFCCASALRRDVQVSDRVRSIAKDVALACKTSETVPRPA

NK = test: Affinity to brain targets (panel); format: binding; settings: NK: neurokinin
HERG = HERG (Homo sapiens, UniProt Q12809); test: Affinity to brain targets (panel); format: binding; settings: HERG: human ether-a-go-go
Chain of HERG (Q12809 whole entry): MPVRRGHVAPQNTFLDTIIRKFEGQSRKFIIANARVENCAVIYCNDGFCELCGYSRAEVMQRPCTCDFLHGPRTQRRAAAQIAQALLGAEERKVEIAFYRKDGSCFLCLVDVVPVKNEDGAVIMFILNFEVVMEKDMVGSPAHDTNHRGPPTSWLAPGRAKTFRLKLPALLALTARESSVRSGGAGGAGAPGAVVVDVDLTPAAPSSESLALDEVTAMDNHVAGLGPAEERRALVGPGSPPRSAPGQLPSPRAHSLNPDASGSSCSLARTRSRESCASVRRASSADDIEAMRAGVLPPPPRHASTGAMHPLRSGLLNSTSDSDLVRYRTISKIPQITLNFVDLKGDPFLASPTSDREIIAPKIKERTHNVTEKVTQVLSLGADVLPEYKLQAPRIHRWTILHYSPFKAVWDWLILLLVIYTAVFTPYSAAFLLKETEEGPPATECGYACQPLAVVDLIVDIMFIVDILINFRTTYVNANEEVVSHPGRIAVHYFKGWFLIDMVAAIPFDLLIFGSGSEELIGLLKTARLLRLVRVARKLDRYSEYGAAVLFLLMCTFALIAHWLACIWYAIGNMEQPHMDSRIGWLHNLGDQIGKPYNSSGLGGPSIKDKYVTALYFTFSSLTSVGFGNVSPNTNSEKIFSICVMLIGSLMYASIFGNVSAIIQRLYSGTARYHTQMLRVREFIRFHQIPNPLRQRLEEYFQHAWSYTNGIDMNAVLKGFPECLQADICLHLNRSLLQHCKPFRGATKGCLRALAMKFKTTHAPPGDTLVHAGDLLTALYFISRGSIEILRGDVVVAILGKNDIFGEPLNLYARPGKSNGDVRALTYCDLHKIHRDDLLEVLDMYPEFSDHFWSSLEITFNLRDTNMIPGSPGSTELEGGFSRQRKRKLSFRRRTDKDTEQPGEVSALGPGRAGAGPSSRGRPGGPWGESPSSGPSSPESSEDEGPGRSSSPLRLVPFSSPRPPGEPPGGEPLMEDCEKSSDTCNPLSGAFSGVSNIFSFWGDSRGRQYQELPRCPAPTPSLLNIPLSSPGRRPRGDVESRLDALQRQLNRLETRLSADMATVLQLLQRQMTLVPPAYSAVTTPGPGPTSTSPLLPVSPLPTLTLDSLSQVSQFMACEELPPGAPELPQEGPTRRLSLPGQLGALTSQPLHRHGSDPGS

5-HT2A-2C = test: Affinity to brain targets (panel); format: binding
NT = test: Affinity to brain targets (panel); format: binding; settings: NT: neurotrophin
Ca++ channel = test: Affinity to brain targets (panel); format: binding
D1-D5 = test: Affinity to brain targets (panel); format: binding
tumor xenografts = settings: references 12-14; cited from earlier work
AMPA = test: Affinity to brain targets (panel); format: binding
panel of kinases = settings: cited from earlier work
PBR = PBR (Homo sapiens, UniProt P30536); test: Affinity to brain targets (panel); format: binding
Chain of PBR (P30536 whole entry, species assumed): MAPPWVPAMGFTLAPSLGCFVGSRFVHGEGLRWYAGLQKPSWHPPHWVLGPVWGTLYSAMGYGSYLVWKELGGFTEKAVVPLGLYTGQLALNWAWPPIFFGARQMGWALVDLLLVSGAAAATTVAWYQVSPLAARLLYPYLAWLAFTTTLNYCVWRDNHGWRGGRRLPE

Smoothened = Smoothened (Homo sapiens, UniProt Q99835); test: Affinity to brain targets (panel); format: binding
Sigma1 = Sigma1 (Homo sapiens, UniProt Q99720); test: Affinity to brain targets (panel); format: binding
Chain of Sigma1 (Q99720 whole entry): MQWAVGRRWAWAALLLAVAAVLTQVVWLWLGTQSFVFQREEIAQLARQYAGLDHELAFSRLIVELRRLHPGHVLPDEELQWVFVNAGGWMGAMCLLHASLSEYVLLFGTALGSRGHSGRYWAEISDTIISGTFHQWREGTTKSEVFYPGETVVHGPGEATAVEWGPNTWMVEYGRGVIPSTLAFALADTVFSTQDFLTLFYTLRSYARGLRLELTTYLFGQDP

DOR = DOR (Homo sapiens, UniProt P41143); test: Affinity to brain targets (panel); format: binding; settings: DOR: delta opioid receptors
Chain of DOR (P41143 whole entry): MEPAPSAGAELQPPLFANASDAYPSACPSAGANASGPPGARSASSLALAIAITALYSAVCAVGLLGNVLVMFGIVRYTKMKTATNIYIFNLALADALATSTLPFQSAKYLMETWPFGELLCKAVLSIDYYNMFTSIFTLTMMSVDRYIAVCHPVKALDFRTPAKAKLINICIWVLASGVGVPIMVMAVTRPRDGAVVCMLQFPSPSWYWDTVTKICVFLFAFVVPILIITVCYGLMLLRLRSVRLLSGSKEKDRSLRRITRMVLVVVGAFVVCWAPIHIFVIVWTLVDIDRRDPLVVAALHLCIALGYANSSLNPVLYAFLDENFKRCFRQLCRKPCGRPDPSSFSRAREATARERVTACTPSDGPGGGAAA

β1-3 = test: Affinity to brain targets (panel); format: binding
Oxytocin = target: T1, Oxytocin (Homo sapiens, UniProt P30559); test: Affinity to brain targets (panel); format: binding
T1 sequence (P30559 1-389): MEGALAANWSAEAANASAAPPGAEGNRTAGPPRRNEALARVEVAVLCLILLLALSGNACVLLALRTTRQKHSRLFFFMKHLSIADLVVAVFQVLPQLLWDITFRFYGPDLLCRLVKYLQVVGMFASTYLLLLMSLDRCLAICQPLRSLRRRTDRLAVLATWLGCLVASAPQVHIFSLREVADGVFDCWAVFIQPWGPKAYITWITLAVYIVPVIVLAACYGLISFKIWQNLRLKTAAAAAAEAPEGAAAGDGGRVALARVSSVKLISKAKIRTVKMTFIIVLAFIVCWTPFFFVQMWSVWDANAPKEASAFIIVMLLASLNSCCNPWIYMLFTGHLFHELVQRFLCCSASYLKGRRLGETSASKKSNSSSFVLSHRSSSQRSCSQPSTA

MT = settings: listed under MT; reference 12; cited from earlier work
5-HT1A-1E = test: Affinity to brain targets (panel); format: binding

Question: With `COc1ccc(N(C)c2ncnc3occ(C)c23)cc1` [HD-800, reference compound] as the compound, how does the Ki (α2A-2C) read?
Answer: Its Ki is > 10 µM.

Question: What about the Ki (I) of the same compound?
Answer: Its Ki is > 10 µM.

Question: What about the Ki (Na+ Channel) of the same compound?
Answer: Its Ki is > 10 µM.

Question: And the Ki (CB1, CB2)?
Answer: The Ki was > 10 µM.

Question: And the Ki (GABA)?
Answer: Its Ki is > 10 µM.

Question: And the Ki (DAT)?
Answer: Its Ki is > 10 µM.

Question: What about the Ki (α1A-1C) of the same compound?
Answer: Its Ki is > 10 µM.

Question: And the Ki (KOR)?
Answer: Its Ki is > 10 µM.

Question: What about the Ki (PKC) of the same compound?
Answer: Its Ki is > 10 µM.

Question: And the IC50 (Microtubule)?
Answer: The IC50 was 0.0032 µM.

Question: What about the Ki (M) of the same compound?
Answer: Its Ki is > 10 µM.

Question: What about the Ki (H3, H4) of the same compound?
Answer: The Ki was > 10 µM.

Question: And the Ki (VMAT)?
Answer: The Ki was > 10 µM.

Question: And the Ki (NET)?
Answer: The Ki was > 10 µM.

Question: And the Ki (H2)?
Answer: The Ki was > 10 µM.

Question: What about the Ki (SERT) of the same compound?
Answer: Its Ki is > 10 µM.

Question: And the Ki (KA)?
Answer: The Ki was > 10 µM.

Question: What about the BBB penetration [1] of the same compound?
Answer: Its BBB penetration is “BBB penetrant”.

Question: And the Ki (Adenosine)?
Answer: Its Ki is > 10 µM.

Question: What about the Ki (mGluR) of the same compound?
Answer: Its Ki is > 10 µM.

Question: And the Ki (BZP)?
Answer: The Ki was > 10 µM.

Question: And the Ki (MDR1)?
Answer: Its Ki is > 10 µM.

Question: What about the Ki (MOR) of the same compound?
Answer: Its Ki is > 10 µM.

Question: What about the Ki (Sigma2) of the same compound?
Answer: The Ki was > 10 µM.

Question: What about the Ki (5-HT3-7) of the same compound?
Answer: Its Ki is > 10 µM.

Question: What about the Ki (H1) of the same compound?
Answer: Its Ki is > 10 µM.

Question: And the Ki (EP)?
Answer: Its Ki is > 10 µM.

Question: What about the Ki (NMDA) of the same compound?
Answer: Its Ki is > 10 µM.

Question: What about the Ki (NOP) of the same compound?
Answer: The Ki was > 10 µM.

Question: What about the Ki (NK) of the same compound?
Answer: The Ki was > 10 µM.

Question: And the Ki (HERG)?
Answer: The Ki was > 10 µM.

Question: What about the Ki (5-HT2A-2C) of the same compound?
Answer: Its Ki is > 10 µM.

Question: What about the Ki (NT) of the same compound?
Answer: The Ki was > 10 µM.

Question: What about the Ki (Ca++ channel) of the same compound?
Answer: Its Ki is > 10 µM.

Question: What about the Ki (D1-D5) of the same compound?
Answer: The Ki was > 10 µM.

Question: What about the “tumor growth inhibition (TGI) compared with paclitaxel” value (tumor xenografts) of the same compound?
Answer: Its value is “higher tumor growth inhibition (TGI) than paclitaxel”.

Question: And the Ki (AMPA)?
Answer: Its Ki is > 10 µM.

Question: What about the “binding to a panel / variety of kinases” value (panel of kinases) of the same compound?
Answer: Its value is “selective”.

Question: And the Ki (PBR)?
Answer: Its Ki is 2.36 µM.

Question: And the Ki (Smoothened)?
Answer: The Ki was > 10 µM.

Question: What about the Ki (Sigma1) of the same compound?
Answer: The Ki was > 10 µM.

Question: What about the Ki (DOR) of the same compound?
Answer: Its Ki is > 10 µM.

Question: What about the Ki (β1-3) of the same compound?
Answer: The Ki was > 10 µM.

Question: And the Ki (Oxytocin)?
Answer: Its Ki is > 10 µM.

Question: What about the GI50 (MT) of the same compound?
Answer: Its GI50 is < 0.01 µM.

Question: And the Ki (5-HT1A-1E)?
Answer: Its Ki is > 10 µM.
